# Data: publication PMC5642494 (Oncotarget, 2017)
# Columns and labels:
# pRb at S807/811 = test: Immunoblotting of phospho-Rb in ZR-75-1, T-47D and MCF7 cells; assay type: cell-based, human; conditions: MCF7, T-47D, ZR-75-1 cells; 24 hours; 0.027 µM to 20 µM
# Protocol: Protein lysates were prepared from the cells and analyzed for the expression of various biomarkers by immunoblotting. The biomarkers included phosphor-Rb at serines 807/811,phosphorylation of serine 2 on the C-terminal repeat domain on RNA polymerase II (pCTD) and MCL1. Images of Western blots were cropped to denote the relevant band(s) for clarity. […] Ki-67 positive events were obtained by gating versus background signal.
# H3K9me3 = test: Hypermethylation of histone H3 at lysine 9 (H3K9me3), MCF7; assay type: cell-based; conditions: Homo sapiens, 2 DT, n = 2, read-out: EC50 H3K9me3 levels
# Protocol: Relative IC50/EC50 values were determined by curve fitting to a four parameter logistic equation: Y = bottom + ((top-bottom)/ (1+exp(HillSlope*(X – LnIC50)), where X is the natural log of dose/concentration, Y is response, decreasing as X increases, top and bottom are plateaus in the same units as Y, lnIC50 is the natural log of potency, in the same log units as X, and HillSlope measures the steepness of the curve. Data were plotted using GraphPad Prism.
# BioResearch) where indicated; the dates of acquisition and in an Acumen Explorer Ex3 (TTP Labtech), raw data testing are listed in parentheses: ZR-75-1; T-47D; MDA- were analyzed with Cellista software and then further MB-468; HCC70; BT-549; BT-20; MDA-MB-231; MDA- normalized in Excel against the values obtained for cells MB-175-VII, HCC-1937; MDA-MB-415. treated with 2 µM BEZ235, or vehicle (0.2% v/v DMSO); data were graphed using GraphPad Prism®. Images were SA-β-galactosidase immunocytochemical labeling taken by fluorescent microscopy using a Leica DMiL. […]
# SA-β-gal Cell samples were lysed after treatment with expression was determined using the Senescence Cells 100 µL lysis buffer and transferred to a 96-well plate. […]
# (BSA) (Invitrogen #15260-037) for 1 hour at 25°C. EdU Samples were analyzed by LC─MS/MS under the detection was performed using the Click-iT High Content conditions described below. […]
structure (smiles),measurement,setting,value
"CCN1CCN(Cc2ccc(Nc3ncc(F)c(-c4cc(F)c5nc(C)n(C(C)C)c5c4)n3)nc2)CC1 [abemaciclib, Abemaciclib]",levels of phosphorylated Rb (pRb) at S807/811,pRb at S807/811,decrease in levels of phosphorylated Rb
same,EC50,H3K9me3,340 ± 16 nM
